Data: patent US11420944B2, “Voltage-dependent t-type calcium channel blocker” (Nippon Chemiphar Co., Ltd., priority 2016, dated 2022)
Where two headings read alike, the source gives them in different places.

Columns and labels:
human Cav3.2 channels [1] = biological target: T1, human Cav3.2 channels (Homo sapiens, UniProt O95180); assay: Electrophysiological evaluation, whole-cell patch-clamp with automatic patch-clamp system; type: cell-based; conditions: for inhibition at 0.3 µM: holding potential −80 mV, read-out: Cav3.2 channel current inhibition ratio at 0.3 μM of test compound (holding potential −80 mV)
T1 construct: expressed in transfected cells; host or cells: HEK293 cells (ATCC No. CRL-1573), plasmid pcDNA3.1(+)
How it was run: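 Stable human Cav3.2 cell line, automated whole-cell patch clamp at room temperature. Peak inward current on 100 msec steps to −20 mV every 10 sec; five concentrations applied cumulatively by perfusion. Inhibition scored at 0.3 μM compound from −80 mV holding, or 3 μM from −100 mV.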

mouse PSNL model = assay: Mechanical allodynia in mouse PSNL model, peroral administration; type: in vivo; conditions: perorally administered, 10 mg/kg and 30 mg/kg, compared to the vehicle group
Procedure: Mechanical Allodynia in Mouse PSNL Model
(§1) Production of a mouse PSNL model was carried out according to the method of Seltzer, et al. A mouse was subjected to inhalation anesthesia with isoflurane. The femoral region of the mouse was shaved and disinfected with isodine. The skin on the thighbone of the mouse was incised, the fascia underneath the skin was cut, and the biceps femoris muscle was divided at a site between the heads of muscles. The sciatic nerve underneath the incision was checked, and then the sciatic nerve was detached without damaging the nerve. The needle of an 8-0 silk suture with a needle was passed through the sciatic nerve so as to penetrate through the nerve, and thus a portion of about ½ to ⅓ of the sciatic nerve was ligated. The skin was sutured, and the mouse was kept for about 7 days. The surgery of a Sham control mouse was performed only for checking of the sciatic nerve, and the skin was sutured.
(§2) The measurement of pain threshold was carried out after the mouse was transferred into a cage for measurement and was waited until exploratory behavior had disappeared. […] The 50% threshold was calculated by an up-down method by referring to the method of Chaplan, et al. (Quantitative assessment of tactile allodynia in the […]. J Neurosci Methods, 53, 1994, 55-63). […]

human Cav3.2 channels [2] = biological target: T1, human Cav3.2 channels; assay: Intracellular calcium concentration measurement (Fluo-4 AM) in stable cells expressing human Cav3.2 channels, buffer A / buffer B; type: cell-based
How it was run: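 HEK293 cells stably expressing human Cav3.2, Fluo-4 loaded, preincubated 15 min at room temperature with compound (0.1% DMSO final) in buffer A (K+ equilibrium −92 mV) or B (−110 mV). After ionophore, KCl (83.8 or 91.8 mM) stimulus; 10 s fluorescence rise (ex 485/em 510 nm) gave % inhibition and IC50.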

CYP3A4 = biological target: T2, CYP3A4 (Homo sapiens, UniProt P08684); assay: Evaluation of CYP3A4 activity inhibitory action; type: in vitro ADME; conditions: Human CYP3A4BR EasyCYP Bactosomes, 7-Benzyloxy-4-(trifluoromethyl)-coumarin
T2 construct: purchased Cypex, Ltd; host or cells: E. coli membranes (Bactosomes)
Procedure: Evaluation of CYP3A4 Activity Inhibitory Action
To a 50 mM potassium phosphate buffer solution (pH 7.4), 5 nM Human CYP3A4BR EasyCYP Bactosomes (Cypex, Ltd.), 50 μM 7-Benzyloxy-4-(trifluoromethyl)-coumarin, cofactor mix (0.0081 mM β-NADP^+, 0.4 mM G-6-P, 0.4 mM MgCl2, and 0.2 U/mL G-6-P DH(Y)), and 0.01% Pluronic F-127 were added, and the mixture was incubated for 45 minutes at 37° C. The reaction was initiated by adding the cofactor mix. After the incubation, 0.5 M Tris base/acetonitrile (20:80) was added thereto as a reaction terminating liquid, and the resulting mixture was stirred. Subsequently, the fluorescence intensity (excitation: 405 nm, emission: 535 nm) was measured. The reaction was carried out in duplicate. The results are presented as the inhibition rate at 10 μM of the test compound.

[3] = test system: mouse partial sciatic nerve ligation (PSNL) model; assay: Mechanical allodynia in a mouse partial sciatic nerve ligation (PSNL) model, intraperitoneal administration; type: in vivo; conditions: intraperitoneally administered, 20 to 30 mg/kg, compared to the vehicle group
Procedure: Mechanical Allodynia in a Mouse Partial Sciatic Nerve Ligation (PSNL) Model
as §1, §2

T1 sequence (O95180 whole entry): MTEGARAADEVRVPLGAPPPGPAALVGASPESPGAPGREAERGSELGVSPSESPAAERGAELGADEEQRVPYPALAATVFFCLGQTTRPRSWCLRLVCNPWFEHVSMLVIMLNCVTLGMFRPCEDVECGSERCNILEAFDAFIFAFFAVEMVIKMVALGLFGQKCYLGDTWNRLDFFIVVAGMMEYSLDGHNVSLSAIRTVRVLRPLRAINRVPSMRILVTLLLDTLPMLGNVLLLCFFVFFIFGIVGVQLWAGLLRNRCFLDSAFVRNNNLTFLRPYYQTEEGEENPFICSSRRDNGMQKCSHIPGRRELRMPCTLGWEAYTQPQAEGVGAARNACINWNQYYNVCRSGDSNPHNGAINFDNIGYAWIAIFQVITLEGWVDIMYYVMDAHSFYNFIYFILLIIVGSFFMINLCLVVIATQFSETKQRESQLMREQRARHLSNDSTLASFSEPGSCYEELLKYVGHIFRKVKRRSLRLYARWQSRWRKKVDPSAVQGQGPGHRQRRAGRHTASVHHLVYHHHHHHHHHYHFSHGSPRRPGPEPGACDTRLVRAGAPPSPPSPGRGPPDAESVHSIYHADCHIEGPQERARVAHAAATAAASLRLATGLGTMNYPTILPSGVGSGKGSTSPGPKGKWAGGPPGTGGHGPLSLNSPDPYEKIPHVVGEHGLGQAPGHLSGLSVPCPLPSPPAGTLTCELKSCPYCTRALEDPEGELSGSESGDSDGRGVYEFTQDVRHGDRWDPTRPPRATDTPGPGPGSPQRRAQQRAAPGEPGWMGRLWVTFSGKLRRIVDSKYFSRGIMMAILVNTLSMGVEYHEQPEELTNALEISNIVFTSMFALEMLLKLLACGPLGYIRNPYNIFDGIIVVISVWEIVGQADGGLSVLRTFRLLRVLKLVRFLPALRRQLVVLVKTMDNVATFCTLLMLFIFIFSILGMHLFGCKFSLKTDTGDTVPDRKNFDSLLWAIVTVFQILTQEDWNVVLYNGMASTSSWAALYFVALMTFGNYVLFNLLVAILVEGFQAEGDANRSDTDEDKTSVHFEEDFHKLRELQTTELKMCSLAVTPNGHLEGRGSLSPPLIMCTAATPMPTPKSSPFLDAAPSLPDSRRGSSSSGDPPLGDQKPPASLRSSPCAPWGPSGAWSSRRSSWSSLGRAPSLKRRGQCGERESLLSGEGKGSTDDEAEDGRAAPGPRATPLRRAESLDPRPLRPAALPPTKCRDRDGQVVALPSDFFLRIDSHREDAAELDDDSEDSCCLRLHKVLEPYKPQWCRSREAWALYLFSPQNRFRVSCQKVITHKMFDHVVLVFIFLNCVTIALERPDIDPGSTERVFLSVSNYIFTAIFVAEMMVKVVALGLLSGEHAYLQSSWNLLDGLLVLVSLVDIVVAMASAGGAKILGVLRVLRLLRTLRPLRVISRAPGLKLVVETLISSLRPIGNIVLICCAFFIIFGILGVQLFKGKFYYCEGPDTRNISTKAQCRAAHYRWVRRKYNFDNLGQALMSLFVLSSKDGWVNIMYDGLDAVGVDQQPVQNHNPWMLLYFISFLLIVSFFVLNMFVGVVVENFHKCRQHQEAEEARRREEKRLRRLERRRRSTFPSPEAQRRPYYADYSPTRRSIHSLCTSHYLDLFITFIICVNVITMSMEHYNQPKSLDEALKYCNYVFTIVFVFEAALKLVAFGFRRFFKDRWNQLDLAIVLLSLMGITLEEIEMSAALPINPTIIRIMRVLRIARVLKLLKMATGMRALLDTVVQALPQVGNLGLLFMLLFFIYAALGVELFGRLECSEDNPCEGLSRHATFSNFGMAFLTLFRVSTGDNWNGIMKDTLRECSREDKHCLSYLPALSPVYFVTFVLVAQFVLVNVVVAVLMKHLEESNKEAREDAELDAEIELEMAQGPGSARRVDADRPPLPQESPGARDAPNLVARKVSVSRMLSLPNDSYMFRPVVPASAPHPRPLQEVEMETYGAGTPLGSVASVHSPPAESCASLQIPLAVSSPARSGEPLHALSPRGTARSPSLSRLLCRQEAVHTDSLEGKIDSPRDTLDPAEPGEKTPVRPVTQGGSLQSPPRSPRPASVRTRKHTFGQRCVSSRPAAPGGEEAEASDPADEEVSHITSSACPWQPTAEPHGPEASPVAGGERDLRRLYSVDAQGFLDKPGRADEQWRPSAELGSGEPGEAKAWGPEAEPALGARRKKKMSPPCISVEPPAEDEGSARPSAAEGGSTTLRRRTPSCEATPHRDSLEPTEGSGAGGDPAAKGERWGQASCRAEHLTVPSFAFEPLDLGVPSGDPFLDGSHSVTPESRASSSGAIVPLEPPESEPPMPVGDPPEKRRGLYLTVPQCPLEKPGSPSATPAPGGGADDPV
T2 sequence (P08684 whole entry): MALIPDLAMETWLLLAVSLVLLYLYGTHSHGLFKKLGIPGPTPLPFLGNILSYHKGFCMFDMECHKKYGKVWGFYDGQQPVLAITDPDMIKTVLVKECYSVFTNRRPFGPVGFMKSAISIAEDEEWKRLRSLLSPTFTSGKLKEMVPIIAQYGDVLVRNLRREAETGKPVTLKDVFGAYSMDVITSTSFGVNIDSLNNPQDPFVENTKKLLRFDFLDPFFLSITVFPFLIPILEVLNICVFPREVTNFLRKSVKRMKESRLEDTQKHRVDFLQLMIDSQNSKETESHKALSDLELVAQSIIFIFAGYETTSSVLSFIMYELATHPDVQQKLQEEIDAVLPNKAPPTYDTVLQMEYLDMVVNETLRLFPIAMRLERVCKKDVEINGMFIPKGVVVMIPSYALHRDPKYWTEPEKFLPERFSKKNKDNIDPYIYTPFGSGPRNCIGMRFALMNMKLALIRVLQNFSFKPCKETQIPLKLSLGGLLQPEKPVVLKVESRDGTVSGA

Compound | inhibition at 0.3 µM (human Cav3.2 channels [1]) [%] | Cav3.2 channel current inhibition ratio at 3 μM of test compound (holding potential −100 mV) (human Cav3.2 channels [1]) [%] | mechanical allodynia (pain threshold, von Frey filament test) (mouse PSNL model) | IC50 (human Cav3.2 channels [2]; Tables 2 to 6, buffer A, equilibrium potential of potassium −92 mV, read-out: Inhibitory action of buffer A (inactivated state)) [µM] | CYP3A4 activity inhibition ratio at 10 μM of test compound (CYP3A4) [%] | mechanical allodynia (pain threshold, von Frey filament test) [3] | IC50 (human Cav3.2 channels [2]; Table 1, buffer A, equilibrium potential of potassium −92 mV, read-out: Inhibitory action of buffer A (inactivated state)) [µM] | IC50 (human Cav3.2 channels [2]; Table 1, buffer B, equilibrium potential of potassium −110 mV, read-out: Inhibitory action of buffer B (resting state or closed state)) [µM]
C[C@@H](NC(=O)[C@H]1C[C@@H]1c1nc2ccccc2[nH]1)c1cc2cc(F)ccc2o1 [Example 65, (1S,2S)-2-(1H-benzo[d]imidazol-2-yl)-N—((R)-1-(5-fluorobenzofuran-2-yl)ethyl)cyclopropane-1-carboxamide] | 81 | 49 | suppressed mechanical allodynia statistically significantly | ≤ 0.1 | 4.2 | – | – | –
C[C@@H](NC(=O)C1CC1c1nc2ccccc2[nH]1)c1ccc(OCC(F)(F)F)s1 (single isomer, unassigned) [Example 3A] | 60 | 13 | – | – | 12.7 | suppressed mechanical allodynia statistically significantly | ≤ 0.1 | > 10
